These are literature values, as cited in patent US8197866B1, “Herbal treatment for diabetes mellitus, type II” (priority 2009, dated 2012).

Data set [1] relates to streptozocin-induced diabetes.
Data set [2] deals with TPA-mediated tumor promotion.

As for `C[C@@H]1O[C@@H](OC[C@H]2O[C@@H](Oc3cc(O)cc4oc(-c5ccc(O)c(O)c5)cc(=O)c34)[C@H](O)[C@@H](O)[C@@H]2O)[C@H](O)[C@H](O)[C@H]1O` [luteolin 5-rutinoside], the anti-diabetic activity entry in data set [1] is given as “marked anti-diabetic activity”.

On to `O=c1cc(-c2ccc(O)cc2)oc2cc(O)cc(O)c12` [apigenin], for which, in data set [2], the “effect on TPA-mediated tumor promotion” value is “inhibitory effect”.
